Measurements from patent US20050042283A1, “Histamine and CCK2/gastrin receptor blockade in the treatment of acid-peptic disease and cancer” (UNIVERSITY OF MASSACHUSETTS, priority 2003, published 2005).
Where “and” joins values, the source holds several entries; their conditions need not be identical. Equal entries are not always repeated. Entries after “also recorded” stand apart in the source; their conditions may differ.

Tests used:
[1] = tested on: H. felis-infected INS-GAS mice; assay: Maximal gastric acid output by pyloric ligation; type: in vivo; conditions: 3 months treatment; for Reduction of gastric acid output: acid secretion over 4 hours
Experimental: (§1) Mice in group III were treated orally with the histamine H2 receptor antagonist loxtidine (in drinking water) at a dose of 0.5 g/L, while group IV mice received both drugs. For the 3 months drug study of inhibitory effects on maximal acid secretion, gastric atrophy, hyperplasia and dysplasia, 8 mice were prepared for each group. For the 6 months drug study of inhibitory effects on gastric carcinogenesis, 17 mice were prepared for each group.
The pyloric ligation method was used to measure maximal acid secretion as previously described (Chen, D. et al., 2004). Briefly, mice were fasted overnight and anesthetized by isoflurane inhalation. The abdomen was incised by midline celiotomy, the pylorus ligated firmly, and the abdomen closed with surgical sutures. After 4 hours, the mice were euthanized and gastric juice collected. The acidity of gastric juice was measured with a pH meter (AR 25; Fisher Scientific, Houston, Tex.) by 0.01 N NaOH titration and results expressed as μEq.

[2] = tested on: H. felis-infected INS-GAS mice; assay: Stomach wet-weight and gross stomach size; type: in vivo
Excerpt: The control group (A) included INS-GAS mice that were infected with H. felis but untreated, resulting in a total of 4 groups of mice (A-D). The INS-GAS (male) mice entered the study at 6-8 weeks of age, and were housed in 4 cages. There were 21 mice in each group, seven of which were euthanized after 3 months and 14 of which were euthanized after 6-7 months. The doses of medication are shown. Loxtidine was given in the drinking water while YF476 was given by subcutaneous injection once a week.
FIG. 4: Closed stomachs from INS-GAS/H. felis mice. Gross photos of representative stomachs from each of the four groups of 6 month H. felis-infected INS-GAS mice are shown. Mice were euthanized by CO2 inhalation and the stomachs were removed by […] of the esophagus and duodenum.
as §1

[3] = tested on: COOH-terminally amidated gastrin; assay: Gastrin radioimmunoassay (serum amidated gastrin); type: in vivo, mice; conditions: 6 months treatment
Experimental: Plasma gastrin levels (COOH-terminally amidated gastrin) were determined by radioimmunoassay using rabbit antiserum L2 that reacts similarly with G17 and […]. Real-time PCR Assay of Helicobacter felis infection in mouse stomachs and RT-PCR assay of growth factors and cytokine expression profiles H.felis DNA present in infected mouse stomachs was quantified using a modification of a previously described realtime PCR assay that accurately quantified H. pylori (Ge, Z. et al., 2001). Two primers (forward: 5′-[…] -3′ (SEQ ID NO:1); reverse: 5′-[…]-3′(SEQ ID NO:2) were designed to hybridize within the conserved region of the single copy H. felis flaB gene locus. No products were amplified from DNA isolated from H. pylori, H. mustelae, or H. bizzozeroni, confirming the specificity of these oligonucleotides for H. felis. DNA from plate-grown H. felis and from mouse gastric corpus was prepared using a high pure PCR kit (Roche Molecular Biochemicals, Indianapolis, IN). Real-time PCR was performed using SmartCycler (Cepheid, Calif.) and Quantitect SYBR Green PCR kit (QIAGEN Inc., Valencia, Calif.) following the manufacturer's instructions. Briefly, the PCR assay was performed under the following conditions: 95° C. for 15 minutes followed by 45 cycles of 95° C. for 15 seconds, 55° C. for 30 seconds and 72° C. for 30 seconds. […]

Reg I = assay: Real-time RT-PCR of growth factor expression: Reg I; type: in vivo; conditions: quantitative real-time PCR; versus non drug treated mice
Experimental: (§2) Real-time RT-PCR assay of growth factors and cytokine expression profiles Total RNAs were extracted from a sample of whole stomach from each animal with Trizol (Invitrogen, Calif.) and five micrograms of total RNA were used for first strand cDNA synthesis using Superscript II cDNA amplification System (Invitrogen, Calif.) following manufacturer's instructions. Real-time PCR was performed as above using RT-PCR primers for each gene as listed below. All primers were designed using Lasergene ver5.0 software (DNASTAR inc., Madison, Wis.). Results were calculated by minus delta delta threshold cycle (-ΔΔCt) method (Livak, K. J. et al., 2001). Briefly, the threshold cycle Ct1 of each sample reaction was deducted from the threshold cycle Ct2 of GAPDH reaction for normalization, and then deducted from the threshold cycle Ct3 of calibration control (45 cycles in this experiment), i.e., the final result was represented by the formula; Ct3-(Ct1-Ct2). […]

IL-4 = assay: Real-time RT-PCR of cytokine expression: IL-4; type: in vivo; conditions: 6 months; versus untreated mice; listed as loxtidine alone
Experimental: as §2

[4] = tested on: enterochromaffin-like (ECL) cell; assay: Gastric histology of loxtidine-treated South African rat; type: in vivo, Mastomys (African multimammate rat); conditions: treated for 16 weeks
Excerpt: FIG. 2: Characteristics of loxtidine.

ECL cell = conditions: cited from earlier work

With “1-methyl-5-((3-(3-(1-piperidinylmethyl)phenoxy)propyl)amino)-1H-1,2,4-triazole-3-ethanol [Loxtidine]” the “Maximal gastric acid output (MAO), effect in words” value [1] was “significantly inhibited”, the “Reduction of gastric acid output” value [1] was 80% and the “Reduction of gastric acid output” value ([1]; listed as loxtidine) was 83%. The Gross stomach size ([2]; 6 month H. felis-infected mice) was “significant reduction in apparent size”, the “Stomach weight after treatment” value ([2]; untreated 1831 / ~1830 mg) was ~400 mg and ~800 mg and the “Serum amidated gastrin levels compared with untreated mice” value [3] was “no significant, but in a higher tendency”. For the same substance, the “Serum amidated gastrin levels compared with untreated mice” value ([3]; listed as loxtidine alone) was “tendency toward higher gastrins that was not significant”, the “Reg I expression level” value (Reg I) was “markedly reduced” and the IL-4 expression level (IL-4) was “large and significant increase; also recorded: significantly higher level”. For the same substance, the Gastric histology finding [4] was “enterochromaffin-like (ECL) cell neoplasia”, the “Tumor induction in rats” value (ECL cell; rat, in vivo) was “induction of ECLomas” and the “Duration of administration after which ECL cell hyperplasia was seen” value (ECL cell; rats, Poynter et al.) was 39 days.
